Numbers after ± are expanded uncertainties.

A short description of this data set: Boiling temperature at pressure P. The note with it: Liquid, Closed cell (Static) method.

Regarding `CCO` [ethanol], the “Boiling temperature at pressure P” value by setting is: (9.6 kPa) 30.2 ± 7.1 °C; (13.7 kPa) 36.8 ± 5.2 °C; (23.8 kPa) 47 ± 3.9 °C; (38.9 kPa) 57.0 ± 3.1 °C; (54.5 kPa) 64.4 ± 2.7 °C; (69.5 kPa) 69.7 ± 2.4 °C. Also, under “91.7 kPa”, the “Boiling temperature at pressure P” value was 76.6 ± 2.4 °C.

With `CCCCC(=O)OCC` [ethyl pentanoate], the “Boiling temperature at pressure P” value (7.1 kPa) was found to be 72.2 ± 10 °C; the “Boiling temperature at pressure P” value (8.9 kPa) came out at 77.6 ± 9 °C; the “Boiling temperature at pressure P” value (13.9 kPa) was 88.0 ± 6.9 °C; the “Boiling temperature at pressure P” value (24.1 kPa) came out at 101.8 ± 4.9 °C; the “Boiling temperature at pressure P” value (39.1 kPa) came out at 115.2 ± 3.7 °C; the “Boiling temperature at pressure P” value (52.7 kPa) came to 122.6 ± 3 °C. The “Boiling temperature at pressure P” value is, setting by setting: (69.3 kPa) 130.8 ± 2.9 °C; (91.7 kPa) 141.8 ± 2.9 °C.

Turning to `O` [water], the “Boiling temperature at pressure P” value runs as follows: (6.9 kPa) 38.8 ± 8.5 °C; (9 kPa) 44 ± 7.7 °C; (14.1 kPa) 53 ± 6 °C; (24.1 kPa) 64.2 ± 4.3 °C; (39.5 kPa) 75.7 ± 3.4 °C; (54.3 kPa) 83.8 ± 2.8 °C. The “Boiling temperature at pressure P” value (69.5 kPa) was found to be 90.0 ± 2.6 °C and the “Boiling temperature at pressure P” value (92.1 kPa) is 98.0 ± 2.5 °C.
